Measurements from patent publication US20260176270A1 (Exelixis, Inc., priority 2022, published 2026).
Read-outs that look alike come from different tables or passages of the source.

Legend:
[1] = system: phosphorylation of CDK1 at Thr14 in HCC1806 cells; experiment: Cell lysate AlphaLISA assay measuring inhibition of phosphorylation of CDK1 Thr14; assay type: cell-based; details: read-out: Cellular IC50
Protocol: (§1) Biochemical IC50 values were determined via ADP-Glo™ assay. Cellular IC50 values were determined via AlphaLISA assay.
Cell lysate AlphaLISA® assay measuring inhibition of phosphorylation of CDK1 Thr14. Inhibition of phosphorylation of CDK1 at Thr14 was determined using AlphaLISA® SureFire® Ultra™ Kit from Perkin Elmer (ALSU-PCDK1-A10K). HCC1806 cells were seeded at 2K cells per well (50 μl/well) in 384-well plates (Corning 3570) and stored overnight at 37° C. and 5% CO2. The following day, the compounds dissolved in DMSO were introduced to the cells and incubated for 4 hours at 37° C. and 5% CO2. The cells were then washed with PBS using Blue®Washer and 10 μl of lysis buffer containing protease inhibitor was added. The plate was placed on an orbital shaker (at 4° C.) for 30 minutes and stored overnight at −80° C. for complete lysing. The next day, the plates were thawed at room temperature for at least 30 min. Reagents were prepared in a dimmed light setting (<100 lumens). The assay was run by first adding 5 μl of the acceptor mix (reaction buffer 1: reaction buffer 2: activation buffer: acceptor beads 47:47:4:2), covering the plate with foil, shaking for 2 minutes and incubating at RT for 60 minutes. The donor mix (dilution buffer: donor beads 47:3) was then added at 5 μl per well, placed on the shaker for 2 minutes and incubated at RT for 60 minutes before reading the plates on a PHERAstar® plate reader. The results were normalized to DMSO (0% Inhibition) and 3 μM of reference compound.

PKMYT1 = molecular target: T1, PKMYT1 (Homo sapiens, UniProt Q99640); experiment: ADP-Glo PKMYT1 ATP-depletion assay; details: 50 nM PKMYT1, 13.3 nM CDK1, read-out: Biochemical IC50
T1 construct: PKMYT1 (93 kD, full length, N-terminal GST tag from Signal Chem); GST (N); purchased Signal Chem
T1 sequence (Q99640 1-499): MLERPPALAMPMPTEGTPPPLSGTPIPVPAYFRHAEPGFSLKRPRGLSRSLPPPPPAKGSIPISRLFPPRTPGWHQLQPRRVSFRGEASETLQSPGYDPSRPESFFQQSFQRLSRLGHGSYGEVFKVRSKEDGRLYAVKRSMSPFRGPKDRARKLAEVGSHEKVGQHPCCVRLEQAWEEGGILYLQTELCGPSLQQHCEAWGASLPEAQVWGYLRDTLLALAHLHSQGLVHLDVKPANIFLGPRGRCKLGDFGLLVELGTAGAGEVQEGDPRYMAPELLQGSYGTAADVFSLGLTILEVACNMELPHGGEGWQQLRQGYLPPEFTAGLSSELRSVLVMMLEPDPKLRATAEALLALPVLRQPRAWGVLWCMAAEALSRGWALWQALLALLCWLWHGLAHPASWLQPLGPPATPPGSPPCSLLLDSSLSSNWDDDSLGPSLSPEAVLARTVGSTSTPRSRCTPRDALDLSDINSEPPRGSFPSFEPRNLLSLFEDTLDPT
Protocol: as §1
ADP-Glo™ PKMYT1 ATP-depletion assay. The activity of PKMYT1 is measured using a luciferase-luciferin based ATP detection reaction to quantify ATP depletion resulting from kinase-catalyzed phosphoryl transfer to CDK1 or autophosphorylation of PKMYT1. The ADP generated as a byproduct of the reaction is converted to ATP and used to drive a luciferase reaction. Test compounds were dissolved in DMSO and dispensed into Corning 3824 384-well plates prior to the experiment such that the final DMSO concentration was <1%. To the compounds was added 3 μL of PKMYT1 (93 kD, full length, N-terminal GST tag from Signal Chem). The reaction was started by the addition of 2 μL of CDK1 (58 kDa, full length, N-terminal GST tag from Signal Chem) and ATP in assay buffer (50 mM Hepes, 40 mM NaCl, 10 mM MgCl2, 1 mM DTT, 0.1 mg/mL BSA, 2.5 mM MnCl2). Final assay concentrations were 50 nM PKMYT1, 13.3 nM CDK1, and 88 µM ATP. Plates were centrifuged for 1 minute at 1000 RPM and incubated at RT for 120 minutes. After the incubation period, ADP-Glo™ reagent was added and the plates were incubated for another 40 minutes before finally adding the kinase detection reagent. 30 minutes after the addition, plates were placed on a PHERAstar® plate reader and read using the Luminescence Protocol, integration time at 0.5 seconds.

| IC50 ([1]; Homo sapiens, HCC1806, 4 h) | IC50 (PKMYT1) | IC50 ([1]; 4 hours) | SMILES |
| --- | --- | --- | --- |
| ≥ 5 µM | 50 to 500 nM | – | NC(=O)c1cc2nccnc2c(-c2ccc(F)c(O)c2)c1N [Compound 200] |
| – | < 50 nM | < 0.05 µM | Cc1c(O)cccc1-c1c(N)c(C(N)=O)nc2cccc(C#N)c12 (atropisomer, axis not shown) [Compound 242] |
| ≥ 5 µM | 1000 to 5000 nM | – | COc1cc(-c2c(N)c(C(N)=O)nc3cccnc23)cnc1C [Compound 238] |
| ≥ 5 µM | 1000 to 5000 nM | – | Cc1ccc(O)c(C)c1-c1c(N)c(C#N)cc2nccnc12 [Compound 298] |
| – | 50 to 500 nM | 1 to 5 µM | Cc1c(O)cccc1-c1c(N)c(C(N)=O)cc2nc(C)c(=O)n(C)c12 [Compound 138] |
| 1 to 5 µM | 50 to 500 nM | – | Cc1c(O)cncc1-c1c(N)c(C(N)=O)cc2nccnc12 [Compound 113, 7-amino-8-(5-hydroxy-4-methylpyridin-3-yl)quinoxaline-6-carboxamide] |
| – | ≥ 5000 nM | ≥ 5 µM | COc1nc2cc(C(N)=O)c(N)c(-c3cccc(O)c3C)c2nc1C (atropisomer, axis not shown) [Compound 193] |
| – | ≥ 5000 nM | ≥ 5 µM | NC(=O)c1cc2nccnc2c(-c2cc(O)cnc2Cl)c1N (atropisomer, axis not shown) [Compound 164] |
| 1 to 5 µM | 50 to 500 nM | – | NC(=O)c1nc2cccnc2c(-c2ccc(F)c3[nH]ncc23)c1N [Compound 190] |
| ≥ 5 µM | 1000 to 5000 nM | – | Cc1c(O)cccc1-c1c(N)c(C(N)=O)cc2ncc(=O)n(C)c12 [Compound 202] |
| – | ≥ 5000 nM | ≥ 5 µM | Cc1ccc(O)c(C)c1-c1c(N)c(C#N)cc2nccnc12 (atropisomer, axis not shown) [Compound 301] |
| – | < 50 nM | 0.05 to 0.5 µM | Cc1cnc2cc(C(N)=O)c(N)c(-c3c(C)ccc(O)c3C)c2n1 [Compound 156] |
| 1 to 5 µM | 50 to 500 nM | – | Cc1ccc2[nH]ncc2c1-c1c(N)c(C(N)=O)nc2cccnc12 [Compound 6, 3-amino-4-(5-methyl-1H-indazol-4-yl)-1,5-naphthyridine-2-carboxamide] |
| ≥ 5 µM | 50 to 500 nM | – | Cc1c(O)cccc1-c1c(N)c(C(N)=O)nc2c(=O)[nH]cnc12 [Compound 282] |
| – | 50 to 500 nM | 0.5 to 1 µM | Cc1cncc(C2=c3ncccc3=NC(C(N)=O)C2N)c1C (centres unmarked) [Compound 212] |
| 1 to 5 µM | 50 to 500 nM | – | NC(=O)c1cc2nccnc2c(-c2cc(O)ccc2F)c1N [Compound 114, 7-Amino-8-(2-fluoro-5-hydroxyphenyl)quinoxaline-6-carboxamide] |
| ≥ 5 µM | ≥ 5000 nM | – | Cn1ccc(-c2cc(C(N)=O)cc3nccnc23)cc1=O [Compound 132] |
| ≥ 5 µM | 500 to 1000 nM | – | NC(=O)c1nc2cccnc2c(-c2cnccc2C(F)(F)F)c1N [Compound 259] |
| ≥ 5 µM | ≥ 5000 nM | – | Cc1c(O)cccc1-c1c(N)c(C(N)=O)nc2nccc(Cl)c12 [Compound 261] |
| < 0.05 µM | < 50 nM | – | Cc1c(O)cccc1-c1c(N)c(C(N)=O)cc2nccc(C#N)c12 [Compound 241] |
| 1 to 5 µM | 50 to 500 nM | – | Cc1ccc(O)c(C)c1-c1c(N)c(C(N)=O)cc2nc(N3CCC4(COC4)C3)cnc12 [Compound 339] |
| – | ≥ 5000 nM | ≥ 5 µM | Cc1c(O)cccc1-c1c(N)c(C(N)=O)cc2nc(C)c(=O)n(C)c12 (atropisomer, axis not shown) [Compound 170] |

| IC50 ([1]; Homo sapiens, HCC1806, 4 h) | IC50 (PKMYT1) | IC50 ([1]; 4 hours) | SMILES |
| --- | --- | --- | --- |
| ≥ 5 µM | 1000 to 5000 nM | – | Cc1c(O)cccc1-c1cc(C(N)=O)nc2ccccc12 [Compound 13] |
| 0.05 to 0.5 µM | < 50 nM | – | NC(=O)c1cc2nccnc2c(-c2cccc(O)c2Cl)c1N [Compound 97, 7-Amino-8-(2-chloro-3-hydroxyphenyl)quinoxaline-6-carboxamide] |
| 1 to 5 µM | 50 to 500 nM | – | Cc1c(O)cccc1-c1c(N)c(C(N)=O)nc2cccc(C(N)=O)c12 [Compound 338] |
| ≥ 5 µM | ≥ 5000 nM | – | CC1=C(c2c(N)c(C(N)=O)nc3cccnc23)CCCC1=O [Compound 303] |
| – | 50 to 500 nM | 0.05 to 0.5 µM | Cc1ccc(O)c(C)c1-c1c(N)c(C(N)=O)nc2c(F)cccc12 (single isomer, unassigned) [Compound 38, (M)-3-Amino-8-fluoro-4-(3-hydroxy-2,6-dimethylphenyl) quinoline-2-carboxamide] |
| – | ≥ 5000 nM | ≥ 5 µM | Cc1c(-c2c3c(cc4nccnc24)C(=O)NC(C)(C)N3)ccc(F)c1O (atropisomer, axis not shown) [Compound 313] |
| – | < 50 nM | 0.5 to 1 µM | Cc1c(F)cncc1C1=c2ncccc2=NC(C(N)=O)C1N (centres unmarked) [Compound 226] |
| ≥ 5 µM | ≥ 5000 nM | – | Cc1c(O)cccc1-c1c(N)c(C(N)=O)nc2nccc(C#N)c12 [Compound 260] |
| – | < 50 nM | 0.05 to 0.5 µM | Cc1c(O)cccc1-c1c(N)c(C(N)=O)cc2nccnc12 (single isomer, unassigned) [Compound 87, (P)-7-Amino-8-(3-hydroxy-2-methylphenyl)quinoxaline-6-carboxamide] |
| 1 to 5 µM | 50 to 500 nM | – | Cc1ccc(O)c(C)c1-c1c(N)c(C(N)=O)nc2cc(F)ccc12 [Compound 43, 3-Amino-7-fluoro-4-(3-hydroxy-2,6-dimethylphenyl)quinoline-2-carboxamide] |
| – | 1000 to 5000 nM | ≥ 5 µM | Cc1c(O)cccc1-c1c(N)c(C(N)=O)cc2nccnc12 (single isomer, unassigned) [Compound 89, (M)-7-amino-8-(3-hydroxy-2-methylphenyl)quinoxaline-6-carboxamide] |
| ≥ 5 µM | 50 to 500 nM | – | Cc1c(O)cc(O)cc1-c1c(N)c(C(N)=O)cc2nccnc12 [Compound 331] |
| ≥ 5 µM | 50 to 500 nM | – | Cc1n[nH]c2cccc(-c3c(N)c(C(N)=O)cc4nccnc34)c12 [Compound 109, 7-Amino-8-(3-methyl-1H-indazol-4-yl)quinoxaline-6-carboxamide] |
| – | < 50 nM | 0.05 to 0.5 µM | Cc1ccc(O)c(C)c1-c1c(N)c(C(N)=O)cc2cc(Cl)cnc12 [Compound 177] |
| ≥ 5 µM | ≥ 5000 nM | – | Cc1c(-c2c(N)c(C(N)=O)cc3nccnc23)ccc2[nH]cnc12 [Compound 252] |
| – | 50 to 500 nM | 1 to 5 µM | Cc1c(O)cc(Cl)cc1-c1c(N)c(C(N)=O)nc2cccnc12 [Compound 248] |
| 1 to 5 µM | 50 to 500 nM | – | NC(=O)c1nc2cccnc2c(-c2cc(F)cc3[nH]ncc23)c1N [Compound 203] |
| ≥ 5 µM | ≥ 5000 nM | – | Cc1cc(O)cc(C)c1-c1cc(C(N)=O)nc2ccccc12 [Compound 130] |
| ≥ 5 µM | 1000 to 5000 nM | – | NC(=O)c1cc2nccnc2c(-c2ccnc3[nH]ncc23)c1N [Compound 182] |
| – | < 50 nM | < 0.05 µM | COc1ccnc2c(-c3cccc(O)c3C)c(N)c(C(N)=O)cc12 (atropisomer, axis not shown) [Compound 327] |
| ≥ 5 µM | ≥ 5000 nM | – | CC1=C(c2c(N)c(C(N)=O)nc3cccnc23)CCC[C@@H]1O [Compound 310] |
